Assays:
[1] = tested on: HCV genotype 1a subgenomic replicon; test: HCV replicon assay, genotype 1a (luciferase); format: cell-based; conditions: Hepatitis C virus; genotype 1a replicon stable cell line; luciferase activity measured 48 hours later; 10 point dose response; read-out: 1A pEC50 (converted)
Protocol: (§1) Protocol for Testing and Data Analysis of Compounds in the HCV Replicon Assay
(§2) Compounds were assayed for activity against HCV using the genotype 1a and 1b subgenomic replicon model systems. Stable cell lines bearing the genotype 1a and 1b replicons were used for screening of compounds. Both replicons are bicistronic and contain the firefly luciferase gene. The ET cell line is stably transfected with RNA transcripts harboring a I389luc-ubi-neo/NS3-3′/ET replicon with firefly luciferase-ubiquitin-neomycin phosphotransferase fusion protein and EMCV-IRES driven NS3-5B polyprotein containing the cell culture adaptive mutations (E1202G; T1280I; K1846T) (Krieger at al, 2001 and unpublished). The genotype 1a replicon is a stable cell line licensed from Apath LLC, modified to contain the firefly luciferase gene. The cells were grown in DMEM, supplemented with 10% fetal calf serum, 2 mM Glutamine, Penicillin (100 IU/mL)/Streptomycin (100 μg/mL), 1× nonessential amino acids, and 250-500 μg/mL G418 (“Geneticin”). They were all available through Life Technologies (Bethesda, Md.). The cells were plated at 0.5×10^4 cells/well in 384 well plates containing compounds. The final concentration of compounds ranged between 0.03 pM to […] and the final DMSO concentration of 0.5-1%.
(§3) Luciferase activity was measured 48 hours later by adding a Steady glo (Promega, Madison, Wis.). Percent inhibition of replication data was plotted relative to no compound control. Under the same condition, cytotoxicity of the compounds was determined using cell titer glo (Promega, Madison, Wis.). EC50s were determined from a 10 point dose response curve using 3-4-fold serial dilution for each compound, which spans a concentration range >1000 fold. BioAssay determines the level of inhibition for each compound by normalizing cross-talk corrected plate values against the negative (low or background, cells with no compound present) and positive (high DMSO, no cells) controls to determine Percent Inhibition:
(§4) These normalized values are exported to EC50 where they are plotted against the molar compound concentrations using the standard four parameter logistic equation:
(§5) A=minimum y D=slope factor
(§6) B=maximum y x=log10 compound concentration [M]

[2] = tested on: HCV genotype 1b subgenomic replicon; test: HCV replicon assay, genotype 1b (luciferase, ET cell line); format: cell-based; conditions: Hepatitis C virus; genotype 1b replicon (ET cell line); luciferase activity measured 48 hours later; 10 point dose response; read-out: 1B pEC50 (converted)
Protocol: as §1, §2, §3, §4, §5, §6

| SMILES | EC50 [1] [nM] | EC50 [2] [nM] |
| --- | --- | --- |
| CC=C1C[C@@H](c2ncc(-c3ccc(-c4ccc(-c5cnc([C@@H]6CCCN6C(=O)C(NC(=O)OC)C(C)C)[nH]5)cc4)cc3)[nH]2)N(C(=O)C(NC(=O)OC)C(C)C)C1 (stereo partly drawn) [example 12, (1-{(S)-2-[5-(4′-{2-[(S)-4-Ethylidene-1-(2-methoxycarbonylamino-3-methyl-butyryl)-pyrrolidin-2-yl]-3H-imidazol-4-yl}-biphenyl-4-yl)-1H-imidazol-2-yl]-pyrrolidine-1-carbonyl}-2-methyl-propyl)-carbamic acid methyl ester] | 0.0158 | 0.00437 |
| CN(C)[C@@H](C(=O)N1CCC[C@H]1c1nc(-c2ccc(-c3ccc(-c4c[nH]c([C@@H]5COC6(CCOCC6)N5C(=O)OCc5ccccc5)n4)cc3)cc2)c[nH]1)c1ccccc1 [example 1] | 1.58 | 0.00347 |
| CCC1=C[C@@H](c2ncc(-c3ccc(-c4ccc(-c5cnc([C@@H]6CCCN6C(=O)C(NC(=O)OC)C(C)C)[nH]5)cc4)cc3)[nH]2)N(C(=O)[C@H](NC(=O)OC)C(C)C)C1 (stereo partly drawn) [example 10, (1-{(S)-2-[5-(4′-{2-[(S)-4-Ethyl-1-((R)-2-methoxycarbonylamino-3-methyl-butyryl)-2,5-dihydro-1H-pyrrol-2-yl]-3H-imidazol-4-yl}-biphenyl-4-yl)-1H-imidazol-2-yl]-pyrrolidine-1-carbonyl]-2-methyl-propyl)-carbamic acid methyl ester] | 0.0316 | 0.00603 |
| COC(=O)N[C@H](C(=O)N1CC(C2CC2)=C[C@H]1c1ncc(-c2ccc(-c3ccc(-c4cnc([C@@H]5CCCN5C(=O)[C@@H](NC(=O)OC)C(C)C)[nH]4)cc3)cc2)[nH]1)C(C)C [example 11, methyl[(1S)-1-({(2S)-2-[4-(4′-{2-[(2S)-4-cyclopropyl-1-((2S)-3-methyl-2-{[(methyloxy)carbonyl]amino}butanoyl)-2,5-dihydro-1H-pyrrol-2-yl]-1H-imidazol-4-yl}-4-biphenylyl)-1H-imidazol-2-yl]-1-pyrrolidinyl}carbonyl)-2-methylpropyl]carbamate] | 0.0126 | 0.00468 |
| COC(=O)N[C@H](C(=O)N1CCC[C@H]1c1ncc(-c2ccc(-c3ccc(-c4cnc([C@@H]5C=C(C)CN5C(=O)[C@H](NC(=O)OC)C(C)C)[nH]4)cc3)cc2)[nH]1)C(C)C [example 9, (1-{(S)-2-[5-(4′-{2-[(S)-1-((R)-2-Methoxycarbonylamino-3-methyl-butyryl)-4-methyl-2,5-dihydro-1H-pyrrol-2-yl]-3H-imidazol-4-yl}-biphenyl-4-yl)-1H-imidazol-2-yl]-pyrrolidine-1-carbonyl}-2-methyl-propyl)-carbamic acid methyl ester] | 0.0158 | 0.00776 |
